Test results reported in PubChem BioAssay (NCI).
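All cell lines were grown in 96-well plates and treated with compound for 48 hours. GI50 = concentration required for 50% inhibition of growth. Definition used: TGI = concentration required for complete inhibition of growth.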

Tests used:
Assay in all cases: NCI anticancer screen, dose series, 48 h
SF-295 CNS = system: SF-295 CNS
786-0 renal = system: 786-0 renal
HT29 colon = system: HT29 colon
HCC-2998 colon = system: HCC-2998 colon
NCI-H23 lung = system: NCI-H23 lung
K-562 leukemia = system: K-562 leukemia
MCF7 breast = system: MCF7 breast
SF-268 CNS = system: SF-268 CNS
HOP-92 NSCLC = system: HOP-92 NSCLC
A549 NSCLC = system: A549 NSCLC

SMILES	GI50 (SF-295 CNS) [µM]	TGI (SF-295 CNS) [µM]	GI50 (786-0 renal) [µM]	TGI (786-0 renal) [µM]	GI50 (HT29 colon) [µM]	TGI (HT29 colon) [µM]	GI50 (HCC-2998 colon) [µM]	TGI (HCC-2998 colon) [µM]	GI50 (NCI-H23 lung) [µM]	TGI (NCI-H23 lung) [µM]	GI50 (K-562 leukemia) [µM]	TGI (K-562 leukemia) [µM]	GI50 (MCF7 breast) [µM]	TGI (MCF7 breast) [µM]	GI50 (SF-268 CNS) [µM]	TGI (SF-268 CNS) [µM]	GI50 (HOP-92 NSCLC) [µM]	TGI (HOP-92 NSCLC) [µM]	GI50 (A549 NSCLC) [µM]	TGI (A549 NSCLC) [µM]
CCCCCCCCCCCCCCCCCC1=NCCN1CS(=O)(=O)O	3.55	16.5	17.7	35.3	4.44	19.9	17	34.4	15.4	33.4	3.93	> 100	13.4	35.2	13.9	30.2	7.82	26.2	12.5	31.2
NS(=O)(=O)c1cc2c(cc1Cl)NC(Cc1ccccc1)NS2(=O)=O (stereo unspecified)		> 100		> 100		> 100		> 100		> 100		> 100		> 100		> 100		> 100		> 100
CCOc1ccc([C@@H]2[C@@H](Oc3ccccc3)C(=O)N2c2cc(OC)c(OC)c(OC)c2)cc1	0.0534	> 100	0.0896	> 100	0.0491	0.522	0.468	> 100	0.467	> 100	0.0367	> 100	0.0431	> 100	0.0975	> 100	0.642	> 100	0.215	> 100
COc1ccc(NC(=O)n2nc(N)c3ccccc32)cc1OC	37.6	> 100	> 100	> 100	48.2	> 100	61.1	> 100	83.5	> 100	41.2	> 100	29.5	> 100	49.6	> 100	24.6	> 100	45.8	> 100
ClC1=C(Cl)C(Cl)=C(Cl)C1=C/C=C/c1ccccc1	0.311	1.02	0.444	2.05	0.319	1.16	0.229	0.464	0.257	1.14	0.439	> 100	0.139	0.664	0.261	1.51	0.165	0.491	0.339	1.24
NC(CSC(c1ccccc1)(c1ccccc1)c1ccc(Cl)cc1)C(=O)O (stereo unspecified)	0.216	3.57	1.36	30	0.347	6.92	0.276	2.77	0.487	41.9	0.209	> 57.6	0.0647	18.9	0.399	26.5	1.4	39.3	0.468	> 62
COc1cccc(C2C(C#N)=C(N)Oc3cc(N)ccc32)c1 (stereo unspecified)	0.376	> 100	0.632	> 100	0.36	5.03	0.82	> 100	0.571	> 100	0.396	> 100	0.314	> 100	1.57	> 100	0.31	58.3	0.572	> 100
CN(C)c1ccc(/C=C(/NC(=O)c2ccccc2)c2nc3ccc(Cl)cc3[nH]2)cc1		> 87.3		> 100		78.5		> 75.5		> 100		> 73.8	24.5	> 100		> 100		80.1		> 100
CCCCCCCC/C=C/CCCCCCCC1=NCC[N+]1(CCO)CCO	1.75	4.07	4.8	22.1	1.38	3.25	3.67	20.3	3.05	16	1.52	4.34	3.94	18.6	3.25	13	1.62	5.53	2.77	10.9
Cc1cc2cc3cc(C)c(N(C)C)cc3nc2cc1N(C)C	1.81	8.52	3.87	16.3	1.55	23.8	3.61	14.6	1.8	20.8	4.79	> 100	1.76	> 100	3.45	15.1	1.83	8.36	3	> 100
